Target: H1047R PIK3CA enzyme (Homo sapiens, UniProt P42336, H1047R)
Assay: ADP-Glo Biochemical PIK3CA Kinase Assay

Chain of H1047R PIK3CA enzyme (P42336 whole entry H1047R): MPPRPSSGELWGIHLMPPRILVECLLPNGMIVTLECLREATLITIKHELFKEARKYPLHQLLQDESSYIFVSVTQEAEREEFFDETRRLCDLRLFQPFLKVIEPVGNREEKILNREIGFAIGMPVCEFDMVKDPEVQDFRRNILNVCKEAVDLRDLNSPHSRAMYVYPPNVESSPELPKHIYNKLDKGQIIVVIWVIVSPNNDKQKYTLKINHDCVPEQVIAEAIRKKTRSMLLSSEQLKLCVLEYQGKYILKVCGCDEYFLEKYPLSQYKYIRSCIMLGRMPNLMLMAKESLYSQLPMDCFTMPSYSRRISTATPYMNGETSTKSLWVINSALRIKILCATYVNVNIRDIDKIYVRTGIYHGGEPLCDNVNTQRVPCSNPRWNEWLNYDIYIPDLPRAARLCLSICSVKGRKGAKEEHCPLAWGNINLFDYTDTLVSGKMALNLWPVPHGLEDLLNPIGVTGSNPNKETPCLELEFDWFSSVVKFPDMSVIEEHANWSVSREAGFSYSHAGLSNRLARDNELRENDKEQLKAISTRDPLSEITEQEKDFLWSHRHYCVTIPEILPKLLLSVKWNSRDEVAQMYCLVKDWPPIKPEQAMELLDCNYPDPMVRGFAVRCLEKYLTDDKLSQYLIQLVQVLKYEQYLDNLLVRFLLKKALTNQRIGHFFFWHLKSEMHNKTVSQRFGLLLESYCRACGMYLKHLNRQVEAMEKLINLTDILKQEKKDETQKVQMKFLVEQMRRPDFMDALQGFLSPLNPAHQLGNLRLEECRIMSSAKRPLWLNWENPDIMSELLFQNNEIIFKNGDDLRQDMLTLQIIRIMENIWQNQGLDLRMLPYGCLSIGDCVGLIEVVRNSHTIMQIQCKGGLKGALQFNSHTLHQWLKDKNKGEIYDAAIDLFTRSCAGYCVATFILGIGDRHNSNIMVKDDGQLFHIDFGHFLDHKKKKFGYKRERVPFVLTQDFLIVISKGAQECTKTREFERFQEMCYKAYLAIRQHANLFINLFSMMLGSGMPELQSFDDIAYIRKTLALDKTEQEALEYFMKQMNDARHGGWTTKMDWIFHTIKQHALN
Chain of H1047R PIK3CA enzyme (P27986 whole entry partner): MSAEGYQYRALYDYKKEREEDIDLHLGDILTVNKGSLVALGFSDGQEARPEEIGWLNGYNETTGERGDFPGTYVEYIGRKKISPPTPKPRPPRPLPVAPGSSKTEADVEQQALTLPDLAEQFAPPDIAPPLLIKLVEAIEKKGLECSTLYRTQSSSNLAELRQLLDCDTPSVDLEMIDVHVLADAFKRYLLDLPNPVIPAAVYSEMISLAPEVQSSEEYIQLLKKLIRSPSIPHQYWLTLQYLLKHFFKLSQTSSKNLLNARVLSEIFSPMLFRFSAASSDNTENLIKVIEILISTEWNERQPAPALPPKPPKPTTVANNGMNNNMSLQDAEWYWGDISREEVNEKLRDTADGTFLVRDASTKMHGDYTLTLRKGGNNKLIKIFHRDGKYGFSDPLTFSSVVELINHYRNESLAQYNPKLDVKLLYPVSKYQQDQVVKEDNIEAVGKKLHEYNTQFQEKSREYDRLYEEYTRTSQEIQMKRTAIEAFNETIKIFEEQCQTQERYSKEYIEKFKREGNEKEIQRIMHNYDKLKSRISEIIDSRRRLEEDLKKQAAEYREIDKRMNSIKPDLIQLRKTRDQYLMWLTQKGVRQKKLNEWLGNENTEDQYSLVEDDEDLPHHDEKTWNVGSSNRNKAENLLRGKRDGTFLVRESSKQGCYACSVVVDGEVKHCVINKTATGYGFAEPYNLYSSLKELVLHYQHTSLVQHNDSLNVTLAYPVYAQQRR

IC50 [nM] | SMILES
1000 to 10000 | O=C1NC(c2cc(F)ccc2Cl)c2c(NC(=O)C3(c4cccc(F)c4)CC3)cc(Br)cc21 (centres unmarked) [Compound I-557]
≤ 100 | O=C(O)Cc1cc(NC(=O)c2cc(F)cc(C(F)(F)F)c2)c2c(c1)C(=O)NC2c1cc(F)ccc1Cl (centres unmarked) [Compound I-399]
1000 to 10000 | O=C1NC(c2cc(F)ccc2Cl)c2c(NC(=O)C(Cl)c3ccccc3)cc(-c3ccc4ncnn4c3)cc21 (centres unmarked) [Compound I-1630]
1000 to 10000 | N#CCCc1cc(NC(=O)N2C[C@H](O)c3cc(F)ccc32)c2c(c1)C(=O)N[C@@H]2c1cc(F)ccc1Cl (single isomer, unassigned) [Compound I-2349]
10000 to 100000 | Cn1c(Cl)cc(C(=O)Nc2cc(Br)cc3c2[C@@H](c2cc(F)ccc2Cl)NC3=O)cc1=O [Compound I-2096]
≤ 100 | Cc1cnc2ccc(-c3cc(NC(=O)c4cc(F)cc(C(F)(F)F)c4)c4c(c3)C(=O)NC4c3cc(F)ccc3Cl)nn12 (centres unmarked) [Compound I-1190]
500 to 1000 | O=C(Nc1cc(Br)cc2c1C(c1cc(F)ccc1Cl)NC2=O)c1cc(F)cc(Cl)c1F (centres unmarked) [Compound I-836]
10000 to 100000 | O=C1NC(c2cc(F)ccc2Cl)c2c(NC(=O)N3CC4CC(F)(C4)C3)cc(Br)cc21 (centres unmarked) [Compound I-1753]
≤ 100 | C[S@](=O)(Cc1cc(NC(=O)c2cc(F)cc(C(F)(F)F)c2)c2c(c1)C(=O)N[C@H]2c1cc(F)ccc1Cl)=NC#N (single isomer, unassigned) [Compound I-1564]
≤ 100 | N#Cc1cc(NC(=O)c2cc(F)cc(C(F)(F)F)c2)c2c(c1)C(=O)N[C@@H]2c1cc(F)ccc1Cl (single isomer, unassigned) [Compound I-770]
1000 to 10000 | O=C1N[C@H](c2cc(F)ccc2Cl)c2c(NC(=O)N3C[C@@H](C(F)F)c4ccccc43)cccc21 (single isomer, unassigned) [Compound I-2331]
≤ 100 | N#CCc1cc(NC(=O)c2cc(F)cc(C(F)(F)F)c2)c2c(c1)C(=O)NC2c1cc(F)ccc1Cl (centres unmarked) [Compound I-533]
10000 to 100000 | CC(=O)N[C@H]1CCC[C@H](C(=O)Nc2cc(-c3ccc4ncnn4c3)cc3c2C(c2cc(F)ccc2Cl)NC3=O)C1 (mixture of isomers) [Compound I-1843]
1000 to 10000 | O=C1NC(c2ccncc2Cl)c2c(NC(=O)c3csc4ccccc34)cccc21 (centres unmarked) [Compound I-101]
≤ 100 | N#CCOc1ncc(-c2cc(NC(=O)c3cc(F)cc(C(F)(F)F)c3)c3c(c2)C(=O)NC3c2cc(F)ccc2Cl)cn1 (centres unmarked) [Compound I-1530]
10000 to 100000 | O=C1NC(c2cc(F)ccc2Cl)c2c(NC(=O)N3CC(CO)C(C(F)(F)F)C3)cccc21 (centres unmarked) [Compound I-2181]
1000 to 10000 | O=C1NC(c2cc(F)ccc2Cl)c2c(NC(=O)N3CC(CO)c4ccccc43)cccc21 (mixture of isomers) [Compound I-2314]
1000 to 10000 | O=C1Nc2cccc(NC(=O)c3cc(F)cc(C(F)(F)F)c3)c2C(c2ccccc2Cl)N1 (centres unmarked) [Compound I-1212]
≤ 100 | Cc1ncccc1-c1cc(NC(=O)c2cc(F)cc(C(F)(F)F)c2)c2c(c1)C(=O)NC2c1cc(F)ccc1Cl (centres unmarked) [Compound I-1152]
1000 to 10000 | N#CCc1cc(NC(=O)N2C[C@H](O)c3cc(F)ccc32)c2c(c1)C(=O)N[C@H]2c1cc(F)ccc1Cl (single isomer, unassigned) [Compound I-2539]
10000 to 100000 | Nc1cc(NC(=O)c2cc(F)cc(C(F)(F)F)c2)cc2c1C(c1cc(F)ccc1C(F)F)NC2=O (centres unmarked) [Compound I-269]
10000 to 100000 | CC(=O)N1CCC(C2NC(=O)c3cccc(NC(=O)c4cc(F)cc(C(F)(F)F)c4)c32)CC1 (centres unmarked) [Compound I-1818]
100 to 500 | CC(=O)Nc1cc(NC(=O)N2C[C@](O)(C(F)(F)F)c3cc(F)ccc32)c2c(c1)C(=O)N[C@H]2c1cc(F)ccc1Cl (single isomer, unassigned) [Compound I-2574]

Further lines, the molecule ahead of its results:

SMILES | IC50 [nM]
O=C1N[C@@H](c2cc(F)ccc2Cl)c2c(NC(=O)N3C[C@@](O)(C(F)(F)F)c4cc(F)ccc43)cc(-n3ccnn3)cc21 (single isomer, unassigned) [Compound I-2549] | 100 to 500
O=C1NC(c2cc(F)ccc2Cl)c2c(NC(=O)C3CCCCC3)cccc21 (centres unmarked) [Compound I-1680] | 1000 to 10000
O=C1NC(c2ccccc2Cl)c2c(NC(=O)c3cc(F)cc(C(F)(F)F)c3)cccc2O1 (centres unmarked) [Compound I-1274] | 500 to 1000
O=C1N[C@H](c2cc(F)ccc2Cl)c2c(NC(=O)N3C[C@](O)(C(F)(F)F)c4cc(F)ccc43)cc(Cl)cc21 (single isomer, unassigned) [Compound I-2512] | 1000 to 10000
N#Cc1cc2nccn2cc1-c1cc(NC(=O)c2cc(F)cc(C(F)(F)F)c2)c2c(c1)C(=O)N[C@@H]2c1cc(F)ccc1Cl [Compound I-1585] | 500 to 1000
CS(=O)(=O)Cc1cc(NC(=O)c2cc(F)cc(C(F)(F)F)c2)c2c(c1)C(=O)NC2c1cc(F)ccc1Cl (centres unmarked) [Compound I-310] | ≤ 100
O=C(Nc1cc(C2=CN3CCN=C3C=C2)cc2c1[C@H](c1cc(F)ccc1Cl)NC2=O)c1cc(F)cc(C(F)(F)F)c1 [Compound I-2090] | ≤ 100
Cc1ccccc1C1NC(=O)c2c(CO)ccc(NC(=O)c3csc4ccccc34)c21 (centres unmarked) [Compound I-224] | ≤ 100
N#Cc1cc(NC(=O)N2C[C@@](O)(C(F)(F)F)c3ccccc32)c2c(c1)C(=O)N[C@H]2c1cc(F)ccc1Cl (single isomer, unassigned) [Compound I-2563] | 1000 to 10000
CSC(C)c1cc(NC(=O)c2cc(F)cc(C(F)(F)F)c2)c2c(c1)C(=O)NC2c1cc(F)ccc1Cl (racemic) [Compound I-1490] | ≤ 100
N#Cc1ncccc1-c1cc(NC(=O)c2cc(F)cc(C(F)(F)F)c2)c2c(c1)C(=O)NC2c1cc(F)ccc1Cl (centres unmarked) [Compound I-1214] | ≤ 100
O=C1N[C@@H](c2cc(F)ccc2Cl)c2c(NC(=O)N3CCC[C@](O)(C(F)(F)F)C3)cccc21 (single isomer, unassigned) [Compound I-2115] | 10000 to 100000
O=C(Nc1cc(C(F)(F)F)ccc1Cl)Nc1cc(Br)cc2c1C(c1cc(F)ccc1Cl)NC2=O (centres unmarked) [Compound I-1176] | 100 to 500
O=C1NC(c2cc(F)ccc2Cl)c2c(NC(=O)N3CC4CCC4(C(F)(F)F)C3)cc(Br)cc21 (centres unmarked) [Compound I-1754] | 1000 to 10000
O=C1N[C@@H](c2cc(F)ccc2Cl)c2c(NC(=O)N3C[C@H](O)c4cc(F)ccc43)cc(-n3nccn3)cc21 (single isomer, unassigned) [Compound I-2342] | 100 to 500
O=C(Nc1cc(N2CCc3cnccc32)cc2c1C(c1cc(F)ccc1Cl)NC2=O)c1cc(F)cc(C(F)(F)F)c1 (centres unmarked) [Compound I-1261] | ≤ 100
CN1CCCC(C(=O)Nc2cc(-c3ccc4ncnn4c3)cc3c2C(c2cc(F)ccc2Cl)NC3=O)C1 (centres unmarked) [Compound I-1792] | 1000 to 10000
COCc1cc(NC(=O)N2C[C@@](O)(C(F)(F)F)c3cc(F)ccc32)c2c(c1)C(=O)N[C@H]2c1cc(F)ccc1Cl (single isomer, unassigned) [Compound I-2543] | 1000 to 10000
Nc1cc(NC(=O)c2cc(F)cc(C(F)(F)F)c2)c2c(n1)C(=O)NC2c1cc(F)ccc1Cl (centres unmarked) [Compound I-273] | 100 to 500
O=C1NC(c2cc(F)ccc2Cl)c2c(CS(=O)(=O)c3ccccc3)cc(-c3ccc4ncnn4c3)cc21 (centres unmarked) [Compound I-1728] | 10000 to 100000
O=C1NC(CO)(c2cccc(F)c2)c2c1cccc2-c1nc2cc(C(F)(F)F)cc(F)c2[nH]1 (centres unmarked) [Compound I-2296] | 1000 to 10000

— patent US12581252B2, “Substituted pyrrolo[3,4-b]pyridines as PI3K-α inhibitors” (Relay Therapeutics, Inc., priority 2020, dated 2026)
